From patent US7485667B2, “Acetylenic aryl sulfonate hydroxamic acid tace and matrix metalloproteinase inhibitors” (Wyeth Holdings Corporation, priority 2002, dated 2009) come the findings set out here.

Test [1] has as its system THP-1 cells. Kind of test: THP-1 soluble protein assay (LPS-stimulated THP-1 cells, ELISA). The test is classed as cell-based. Particulars: Homo sapiens. An excerpt: Human Monocytic THP-1 Cell Differentiation Assay for Soluble Proteins (THP-1 Soluble Protein Assay)
Mitogenic stimulation of THP-1 cells cause differentiation into macrophage like cells with concomitant secretion of tumor necrosis factor (TNF-a) and TNF receptor (TNF-R p75/80 and TNF-R p55/60) and Interleukin-8 (IL-8), among other proteins. In addition, non-stimulated THP-1 cells shed both the p75/80 and the p55/60 receptors over time. The release of membrane bound TNF-α and possibly TNF-R p75/80 and TNF-R p55/60, but not IL-8, is mediated by an enzyme called TNF-a converting enzyme or TACE.
THP-1 cells (from ATCC) are a human monocytic cell line which are obtained from the peripheral blood of a person with acute monocytic leukemia. They can be grown in culture and differentiated into macrophage like cells by stimulation with mitogens.
For the assay, THP-1 cells are seeded from an ATCC stock which is previously grown and frozen back at 5×10^6/ml/vial. One vial is seeded into a T25-flask with 16 mls of RPMI-1640 with glutamax (Gibco) media containing 10% fetal bovine serum, 100 units/ml penicillin, 100 μg/ml streptomycin, and 5×10^−5 M 2-mercapto-ethanol (THP-1 media). Each vial of cells are cultured for about two weeks prior to being used for an assay and then are used for only 4 to 6 weeks to screen compounds. Cells are subcultured on Mondays and Thursdays to a concentration of 1×10^5/ml.
To perform an assay, the THP-1 cells are co-incubated in a 24 well plate with […] of a 24 mg/ml stock of Lipopolysacharide (LPS) (Calbiochem Lot# B13189) at 37° C. in 5% CO2 at a concentration of 1.091×10^6 cells/ml (1.1 ml/well) for a total of 24 hours. At the same time, […] of drug, vehicle or THP-1 media is plated in appropriate wells to give a final volume of 1.2 ml/well. Standard and test compounds are dissolved in DMSO at a concentration of 36 mM and diluted from here to the appropriate concentrations in THP-1 media and added to the wells at the beginning of the incubation period to give final concentrations of […], 300 nM, and 100 nM. Cell exposure to DMSO is limited to 0.1% final concentration. Positive control wells are included in the experiment which had mitogen added but no drug. Vehicle control wells are included as well, which are identical to the positive control wells, except that DMSO is added to give a final concentration of 0.083%. Negative control wells are included in the experiment which had vehicle but no mitogen or drug added to the cells. Compounds can be evaluated for their effect on basal (non-stimulated) shedding of the receptors by replacing the LPS with […] of THP-1 media. Plates are placed into an incubator set at 5% CO2 and at 37° C. […]
In addition, at the 24 hours timepoint, and the cells for each treatment group are collected by resuspension in 500 μl/well of THP-1 media and transferred into a FACS tube. […] The samples are run on a Becton Dickinson FaxCaliber FLOW cytometry machine and the amount of dye taken up by each cell is measured in the high red wavelength (FL3). […] The percent of live cells is calculated by the number of cells not stained with PI, divided by the total number of cells in the sample. The viability values calculated for the drug treated groups are compared to the viability value calculated for the vehicle treated mitogen stimulated group (“vehicle positive control”) to determine the “percent change from control”. […]
Background: In an ELISA, binding on a coated surface is turned into a signal by an enzyme label.

For test [2], the target named is TNF-α converting enzyme (TACE) (Homo sapiens, UniProt P78536). Kind of test: TACE inhibition (fluorescent peptidyl substrate). The test is classed as biochemical. The protocol: Test Procedure for Measuring TACE Inhibition
Using 96-well black microtiter plates, each well receives a solution composed of 10 μL TACE (final concentration 1 μg/mL), 70 μL Tris buffer, pH 7.4 containing 10% glycerol (final concentration 10 mM), and 10 μL of test compound solution in DMSO (final concentration 1 μM, DMSO concentration <1%) and incubated for 10 minutes at room temperature. The reaction is initiated by addition of a fluorescent peptidyl substrate (final concentration 100 μM) to each well and then shaking on a shaker for 5 sec.
The reaction is read (excitation 340 nm, emission 420 nm) for 10 min. and the increase in fluorescence over time is plotted as a linear line. The slope of the line is calculated and represents the reaction rate.
The linearity of the reaction rate is confirmed (r^2>0.85). The mean (x±sem) of the control rate is calculated and compared for statistical significance (p<0.05) with drug-treated rates using Dunnett's multiple comparison test. Dose-response relationships can be generate using multiple doses of drug and IC50 values with 95% Cl are estimated using linear regression.

Test [3] addresses T1, MMP-1 (Homo sapiens, UniProt P03956).
T1 sequence (P03956 100-469): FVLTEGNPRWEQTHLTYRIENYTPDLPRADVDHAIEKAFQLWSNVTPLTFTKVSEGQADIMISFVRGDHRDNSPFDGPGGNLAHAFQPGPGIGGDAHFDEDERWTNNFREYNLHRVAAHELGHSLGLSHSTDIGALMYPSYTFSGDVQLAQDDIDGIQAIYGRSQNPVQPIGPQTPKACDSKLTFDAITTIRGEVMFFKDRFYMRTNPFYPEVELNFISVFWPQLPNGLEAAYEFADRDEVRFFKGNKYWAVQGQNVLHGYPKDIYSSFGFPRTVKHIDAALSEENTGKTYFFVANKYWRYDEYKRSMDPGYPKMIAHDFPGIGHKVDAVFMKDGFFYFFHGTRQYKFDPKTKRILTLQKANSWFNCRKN
The test can be described thus: MMP-1 inhibition (thiopeptide or fluorescent peptide substrate). Format: biochemical. The settings on record: read-out: MMP-1 % Inhib. The protocol:
(§1) Test Procedures for Measuring MMP-1 and MMP-13 Inhibition
(§2) These standard pharmacological test procedures are based on the cleavage of a thiopeptide substrates such as Ac-Pro-Leu-Gly(2-mercapto-4-methyl-pentanoyl)-Leu-Gly-OEt by the matrix metalloproteinases MMP-1 or MMP-13 (collagenases) which results in the release of a substrate product that reacts colorimetrically with DTNB (5,5′-dithiobis(2-nitro-benzoic acid)). The enzyme activity is measured by the rate of the color increase. The thiopeptide substrate is made up fresh as a 20 mM stock in 100% DMSO and the DTNB is dissolved in 100% DMSO as a 100 mM stock and stored in the dark at room temperature. Both the substrate and DTNB are diluted together to 1 mM with substrate buffer (50 mM HEPES pH 7.5, 5 mM CaCl2) before use. The stock of enzyme is diluted with buffer (50 mM HEPES, pH 7.5, 5 mM CaCl2, 0.02% Brij) to the desired final concentration. The buffer, enzyme, vehicle or inhibitor, and DTNB/substrate are added in this order to a 96 well plate (total reaction volume of 200 μl) and the increase in color is monitored spectrophotometrically for 5 minutes at 405 nm on a plate reader and the increase in color over time is plotted as a linear line.
(§3) Alternatively, a fluorescent peptide substrate is used. In this test procedure, the peptide substrate contains a fluorescent group and a quenching group. Upon cleavage of the substrate by an MMP, the fluorescence that is generated is quantitated on the fluorescence plate reader. The assay is run in HCBC assay buffer (50 mM HEPES, pH 7.0, 5 mM Ca^+2, 0.02% Brij, 0.5% Cysteine), with human recombinant MMP-1 or MMP-13. The substrate is dissolved in methanol and stored frozen in 1 mM aliquots. For the assay, substrate and enzymes are diluted in HCBC buffer to the desired concentrations. Compounds are added to the 96 well plate containing enzyme and the reaction is started by the addition of substrate. The reaction is read (excitation 340 nm, emission 444 nm) for 10 min. and the increase in fluorescence over time is plotted as a linear line.
(§4) For either the thiopeptide or fluorescent peptide test procedures, the slope of the line is calculated and represents the reaction rate. The linearity of the reaction rate is confirmed (r^2>0.85). The mean (x±sem) of the control rate is calculated and compared for statistical significance (p<0.05) with drug-treated rates using Dunnett's multiple comparison test. Dose-response relationships can be generated using multiple doses of drug and IC50 values with 95% Cl are estimated using linear regression.

The target of test [4] is MMP-13 (Homo sapiens, UniProt P45452). Kind of test: MMP-13 inhibition (thiopeptide or fluorescent peptide substrate). The settings on record: read-out: MMP-13 % Inhib. The test is classed as biochemical. The protocol: as §1, §2, §3, §4

For orientation: IC50 means the concentration needed to halve the response being measured. A higher IC50 goes with a need for much substance.

Chain of TNF-α converting enzyme (TACE) (P78536 215-824, species assumed): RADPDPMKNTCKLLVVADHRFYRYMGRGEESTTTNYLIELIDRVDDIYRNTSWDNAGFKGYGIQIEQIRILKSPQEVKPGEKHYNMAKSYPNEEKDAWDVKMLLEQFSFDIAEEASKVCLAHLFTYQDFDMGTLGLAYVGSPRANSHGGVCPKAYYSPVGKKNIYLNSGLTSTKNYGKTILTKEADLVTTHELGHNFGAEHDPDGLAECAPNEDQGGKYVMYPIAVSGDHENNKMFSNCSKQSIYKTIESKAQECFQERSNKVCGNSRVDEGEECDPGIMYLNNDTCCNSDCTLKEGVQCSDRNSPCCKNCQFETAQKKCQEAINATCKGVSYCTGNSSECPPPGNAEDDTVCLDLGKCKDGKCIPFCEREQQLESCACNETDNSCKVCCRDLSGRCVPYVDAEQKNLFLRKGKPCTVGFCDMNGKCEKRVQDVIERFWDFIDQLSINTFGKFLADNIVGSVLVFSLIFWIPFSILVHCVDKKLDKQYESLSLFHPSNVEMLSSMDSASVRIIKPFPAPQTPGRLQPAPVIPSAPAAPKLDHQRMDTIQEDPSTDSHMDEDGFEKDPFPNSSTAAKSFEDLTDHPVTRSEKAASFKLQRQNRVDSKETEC

In the case of `CC#CCOc1ccc(S(=O)(=O)Oc2ccc(C)cc2C(=O)NO)cc1` [Example 3, 2-[(Hydroxyamino)carbonyl]-4-methylphenyl 4-(2-butynyloxy)benzenesulfonate], the inhibition at 1 µM in test [1] was 0%. The compound also came in with an IC50 in test [2] of 31 nM. The inhibition at 10 µM in test [3] was found to be 11%; in test [4], 27%.
`CC#CCOc1ccc(S(=O)(=O)Oc2cc3ccccc3cc2C(=O)NO)cc1` [Example 5, 3-[(Hydroxyamino)carbonyl]-2-naphthyl 4-(2-butynyloxy)benzenesulfonate] registered an inhibition at 1 µM in test [1] of 0%. This compound showed an IC50 in test [2] of 67 nM. For the same compound, the inhibition at 10 µM was found to be 16% in test [3] and 64% in test [4].
On the same counts, the results for `CC#CCOc1ccc(S(=O)(=O)Oc2c(OC)cccc2C(=O)NO)cc1` [Example 2, 2-[(Hydroxyamino)carbonyl]-6-methoxyphenyl 4-(2-butynyloxy)benzenesulfonate] are 1%, 13 nM, 7% and 56%.
In turn, `CC#CCOc1ccc(S(=O)(=O)Oc2c(C)cccc2C(=O)NO)cc1` [Example 1, 2-[(Hydroxyamino)carbonyl]-6-methylphenyl 4-(2-butynyloxy)benzenesulfonate] displayed an inhibition at 1 µM in test [1] of 11%. For the same compound, the half-maximal inhibitory concentration (IC50) in test [2] was found to be 19 nM. The inhibition at 10 µM in test [3] is 11%; in test [4] it was 38%.
In test [1], `CC#CCOc1ccc(S(=O)(=O)Oc2c(C(=O)NO)cc(C(C)C)cc2C(C)C)cc1` [Example 4, 2-[(Hydroxyamino)carbonyl]-4,6-diisopropylphenyl 4-(2-butynyloxy)benzenesulfonate] had an inhibition at 1 µM of 6%. Besides, the IC50 in test [2] worked out at 361 nM. Moreover, the results for the inhibition at 10 µM in test [3] and in test [4] were 3% and 45%, respectively.
